# Read-outs that look alike come from different tables or passages of the source.
# Key:
# [1] = tested on: tobacco bearing the introduced Arabidopsis thaliana PPO(A220V) gene; test: Leaf piece chlorophyll test, tobacco with Arabidopsis thaliana PPO(A220V) gene; type: in vivo; conditions: 2.0 ppm, 7 days in a light place, treated vs untreated leaf pieces, Example 37
# Source text: Tobacco leaf pieces cultured sterilely were infected with the Agrobacterium strain and, according to the same manner as described in Example 5, tobacco bearing the introduced Arabidopsis thaliana PPO(A220V) gene was obtained.
# Leaves of the tobacco bearing the introduced both Arabidopsis thaliana PPO(A220V) gene and gene encoding the variant tobacco chelatase subunit produced in Example 36, those bearing the introduced Arabidopsis thaliana PPO(A220V) gene produced in Example 35, and the control recombinant tobacco leaves produced in Example 5were collected, and each leaf was divided into the right and left equivalent pieces along the main vein. One of the pieces was treated with an aqueous solution containing 2.0 ppm PPO inhibitory-type herbicidal compound of Structure 8, while the other piece was not treated with the compound. These leaf pieces were placed on MS medium containing 0.8% agar and allowed to stand at room temperature for 7 days in a light place. Then, each leaf piece was ground in 5 ml of 80% aqueous acetone solution in a mortar with a pestle to extract chlorophyll. The extract was diluted 10 times with 80% aqueous acetone solution and the absorbance was measured at 750 nm, 663 nm and 645 nm to calculate the total chlorophyll content according to the method described by Macknney G., J. Biol. Chem. (1941) 140, p 315. […]
# [2] = tested on: E. coli BT3/pACYCSP+pTV118N strain; test: Growth of E. coli BT3/pACYCSP+pTV118N (vector control) with herbicidal compound; type: cell-based; conditions: Escherichia coli, 18 h, 18 hours culture
# Source text: According to the description of Gibson, L. C. D. et al., Proc. Natl. Acad. Sci. USA, 92; p 1941 (1995), the DNA fragment containing bchH gene prepared in Example 1 was digested with the restriction enzymes NdeI and BglII. The resultant DNA fragment was inserted between NdeI restriction site and BamHI restriction site of expression vector pET11a (manufactured by Stratagene) to obtain plasmid pETBCH (FIG. 1). This plasmid pETBCH was introduced into E. coli BL21(DE3) strain competent cells (manufactured by Stratagene) according to the manual attached to the competent cells to obtain E. coli BL21(DE3)/pETBCH strain. The strain was inoculated into 1.5 ml LB liquid culture medium (1% tryptone, 0.5% yeast extract, 0.5% NaCl) containing 100 μg/ml ampicillin in a tube (14×10 mm), and the tube was covered with aluminum foil (hereinafter referred to as dark conditions), cultured with shaking at 37° C. under light of fluorescent lamp (about 8000 lux). When the absorbance at 600 nm of the liquid culture medium became about 0.6, isopropyl β-D-thiogalactopyranoside (IPTG) was added to the liquid culture medium so that the final concentration was 0.4 mM, and the culture was continued for about additional 20 hours. […] In contrast to this, when E. coli BL21(DE3)/pETBCH strain was cultured according to the same manner (with IPTG) except that the tube was not covered with aluminum foil (hereinafter referred to as light conditions), E. coli grew and turned red as above.
# Plasmids pTVBCH and pTV118N respectively were introduced into E. coli BT3/pACYCSP strain prepared in Example 3 according to the method described in Hanahan, D. J., Mol. Biol., 166; p 557 (1983). The resultant E. coli were cultured in YPT medium containing 100 μg/ml ampicillin, 15 μg/ml chloramphenicol and 10 μg/ml kanamycin to obtain E. coli BT3/pACYCSP+pTVBCH strain bearing plasmids pACYCSP and pTVBCH, and E. coli BT3/pACYCSP+pTV118N strain bearing plasmids pACYCSP and pTV118N.
# These strains were inoculated into YPT medium containing 10 or 1 ppm of the PPO inhibitory-type herbicidal compound represented by the above Structure 8, 100 μg/ml ampicillin, 15 μg/ml chloramphenicol, 10 μg/ml kanamycin, 10 μg/ml hemin and 50 μg/ml aminolevulinic acid, cultured under dark conditions or light conditions according to the same manner as in Example 2. Then, 18 hours after initiation of culture, the absorbance of the liquid culture medium was measured at 600 nm. By taking the absorbance of the medium without the herbicidal compound as 1, the relative value of the absorbance of the medium containing the herbicidal compound was calculated.
# Further, these strains were inoculated into YPT medium containing PPO inhibitory-type herbicidal compounds represented by the above Structures 1, 14, 15, 18-22, 29, 32, 33, 34 and 36, respectively, 100 μg/ml ampicillin, 15 μg/ml chloramphenicol, 10 μg/ml kanamycin, 10 μg/ml hemin and 50 μg/ml aminolevulinic acid, cultured under dark conditions or light conditions similar to the Example 2. Then, 18 hours after initiation of culture, the absorbance of liquid culture medium was measured at 600 nm. By taking the absorbance of the medium without the herbicidal compound as 1, the relative value of the absorbance of the medium containing the herbicidal compound was calculated.
# Plasmids pTVGMP and pTV118N prepared in Example 11 were introduced into E. coli BT3/pACYCSP strain prepared in Example 3 respectively according to the method described in Flanahan, D. J., Mol. Biol., 166; p 557 (1983). E. coli BT3/pACYCSP+pTVGMP strain bearing plasmids pACYCSP and pTVGMP, and E. coli BT3/pACYCSP+pTV118N strain bearing plasmids pACYCSP and pTV118N were obtained by culturing the above strains in YPT medium containing 100 μg/ml ampicillin, 15 μg/ml chloramphenicol and 10 μg/ml kanamycin. […]
# [3] = read-out: Relative absorbance, in the dark, Table 2
# [4] = read-out: Relative absorbance, in the dark, Table 7 (Example 12)
# [5] = read-out: Relative absorbance, in the dark, Table 9 (Example 17)
# [6] = read-out: Relative absorbance, in the dark, Table 11 (Example 20)
# [7] = read-out: Relative absorbance, in the dark, Table 13 (Example 23)
# [8] = read-out: Relative absorbance, in the dark, Table 14 (Example 27)
# [9] = read-out: Relative absorbance, in the light, Table 2
# [10] = read-out: Relative absorbance, in the light, Table 7 (Example 12)
# [11] = read-out: Relative absorbance, in the light, Table 9 (Example 17)
# [12] = read-out: Relative absorbance, in the light, Table 11 (Example 20)
# [13] = read-out: Relative absorbance, in the light, Table 13 (Example 23)
# [14] = read-out: Relative absorbance, in the light, Table 14 (Example 27)
compound,measurement,setting,value
C#CCOc1cc(N2C(=O)C3=C(CCCC3)C2=O)c(F)cc1Cl [Structure 8],resistant level,[1],12.2%
same,activity at 1 ppm,[2]; [3],77%
same,activity at 1 ppm,[2]; [4],91%
same,activity at 1 ppm,[2]; [5],91%
same,activity at 1 ppm,[2]; [6],91%
same,activity at 1 ppm,[2]; [7],91%
same,activity at 1 ppm,[2]; [8],98%
same,activity at 1 ppm,"[2]; read-out: Relative absorbance, in the dark, Table 15 (Example 31)",93%
same,activity at 1 ppm,"[2]; read-out: Relative absorbance, in the dark, Table 16 (Example 31)",81%
same,activity at 10 ppm,[2]; [3],68%
same,activity at 10 ppm,[2]; [4],89%
same,activity at 10 ppm,[2]; [5],80%
same,activity at 10 ppm,[2]; [6],80%
same,activity at 10 ppm,[2]; [7],81%
same,activity at 10 ppm,[2]; [8],96%
same,activity at 1 ppm,[2]; [9],31%
same,activity at 1 ppm,[2]; [10],9%
same,activity at 1 ppm,[2]; [11],24%
same,activity at 1 ppm,[2]; [12],24%
same,activity at 1 ppm,[2]; [13],8%
same,activity at 1 ppm,[2]; [14],16%
same,activity at 1 ppm,"[2]; read-out: Relative absorbance, in the light, Table 15 (Example 31)",7%
same,activity at 1 ppm,"[2]; read-out: Relative absorbance, in the light, Table 16 (Example 31)",15%
same,activity at 10 ppm,[2]; [9],18%
same,activity at 10 ppm,[2]; [10],5%
same,activity at 10 ppm,[2]; [11],12%
same,activity at 10 ppm,[2]; [12],12%
same,activity at 10 ppm,[2]; [13],6%
same,activity at 10 ppm,[2]; [14],6%

# Reference: patent US7973219B2, “Method for producing transgenic plants resistant to weed control compounds which disrupt the porphyrin pathways of plants” (Sumitomo Chemical Company, Limited, priority 1998, dated 2011)
